# Entries after “also recorded” stand apart in the source; their conditions may differ.
# Key:
# [1] = tested on: ACHN (renal cancer) subcutaneous tumors; experiment: ACHN xenograft, PAC-1/cholesterol pellet; assay type: in vivo, mice
# [2] = tested on: cellular PARP activity in HL-60 cells; experiment: In vivo PARP activity assay (PARP cleavage) in HL-60; assay type: cell-based, human; conditions: HL-60, 100 μM PAC-1
# Method: In vivo determination of PARP cleavage. The amount of PARP cleavage was determined by using an in vivo PARP activity assay. To accomplish this, 50 μL of media containing 200 μM NAD^+ was added to the control wells of a 96-well plate. […] 25 μL of HL-60 cells at a concentration of 5×10^6 cells/mL were then added to each well. The cells were incubated for various times and then spun at 1000×g for 5 minutes. The cell media was removed and replaced with 50 μL Lysing PARP Buffer (50 mM Tris, 10 mM MgCl2, pH 8.0, 1% Triton X-100) containing 25 mM H2O2. The plate was then incubated for 60 minutes at 37° C. To determine the amount of NAD^+ still present, 20 μL of 2 M KOH and 20 μL of a 20% (v/v) acetophenone (in ethanol) solution was added to each well of the 96-well plate. The plate was then incubated for 10 minutes at 4° C. 90 μL of an 88% (v/v) formic acid solution was added to each well of the 96-well plate. […] The plate was allowed to cool and then read on a Criterion Analyst AD (Molecular Devices, Sunnyvale, Calif.) with an excitation of 360 nm, an emission of 445 nm and a 400 nm cutoff dichroic mirror. The fluorophore was excited using a 1000 W continuous lamp for 1.6×10^5 μs with 5 reads performed per well. The number of moles of NAD^+ cleaved per minute was then calculated and the remaining PARP activity as compared to control wells was determined.
smiles,measurement,setting,value
C=CCc1cccc(/C=N/NC(=O)CN2CCN(Cc3ccccc3)CC2)c1O [PAC-1],food consumption,"[1]; last week of the experiment, 0, 1, 5 mg pellets",no difference in food consumption
same,"tumor growth, ACHN xenograft","[1]; pellet containing 5 mg of PAC-1, about 8 weeks",significantly retarded; also recorded: reduces the growth of tumors
same,cellular PARP activity / PARP-1 cleavage,[2],rapidly reduced; also recorded: induces cleavage of the caspase substrate PARP-1; also recorded: rapid decrease

# — patent US10166229B2, “Compounds and methods for the treatment of cancer” (The Board of Trustees of the University of Illinois, priority 2005, dated 2019)
